Assay results reported in patent publication US10220028B2, “Thio compounds” (The United States of America, as represented by the …, priority 2011, dated 2019).
“Also recorded” adds a separate entry of the source.

Experiments:
IL-2 = test: Generation of IL-2 by TCR-stimulated T cells (cytokine ELISA); format: cell-based, human; settings: FIG. 5B; for concentration at which significant inhibition of IL-2 generation begins: stimulated T cells
Procedure: (§1) FIGS. 5A-5C. Concentration-dependence of effects of certain compounds on human T cell generation of cytokines. Each column and bar depicts the mean±S.D. of the results of cytokine ELISAs of supernates from T cells of a total of four healthy subjects, of whom two were young and two were old, after three days of incubation with anti-CD3+ anti-CD28 antibodies without (control=100%) and with a drug. The mean±S.D. of control (100%) values for IFN-γ, IL-2 and IL-17, respectively, where 30,915±11,206, 5.8±3.4 and 1149±372 pg/ml. A=IFN-γ, B=IL-2 and C=IL-17. Statistical significance of differences from the controls without an IMD was calculated by a two-sample t test and indicated by + for p<0.05,*for p<0.01 and**for p<0.001.
(§2) The capacity of several different compounds to alter the generation of three distinct immune cytokines by TCR-stimulated T cells of young and old subjects was investigated.

[1] = test system: LPS stimulated RAW 264.7 cells; test: Cellular proliferation/health, MTS assay; format: cell-based; settings: for cell stress (changes in O.D. values of the MTS assay): FIG. 4
Procedure: The CellTiter 96 AQueous One Solution Cell Proliferation Assay (Promega, Madison, Wis.) is routinely used as an assay of cell proliferation, and was used herein, according to the manufacturer's recommendations. […] Optical densities were measured after 1 to 2 hours incubation and were expressed as a % change from their appropriate control.

IL-17 = test: Generation of IL-17 by TCR-stimulated T cells (cytokine ELISA); format: cell-based, human; settings: FIG. 5C
Procedure: as §1
No compound was capable of enhancing TCR-stimulated T cell generation of IL-17. However, there was significant inhibition of generation of IL-17 by dithiolenalidomide at 0.1 μM and higher, lenalidomide at 0.3 μM and higher, dithiothalidomide at 3 μM and higher, and thalidomide only at 100 μM (FIG. 5C). None of the thalidomide-type drugs altered cytokine generation alone in the absence of TCR-directed stimulation (data not shown).

IFN-γ = test: Generation of IFN-γ by TCR-stimulated T cells (cytokine ELISA); format: cell-based, human; settings: FIG. 5A; for concentration at which significant inhibition of IFN-γ generation begins: TCR-stimulated T cells
Procedure: as §1, §2

nitrite = test: Nitrite levels, Griess Reagent System assay; format: cell-based; settings: LPS stimulated RAW 264.7 media; FIG. 3
Procedure: Nitrite levels in the culture media were measured by use of the Griess Reagent System (Promega, Madison, Wis.), following the manufacturer's protocol. The O.D. of unknown samples was read at 520 nm A, compared to a sodium nitrite standard curve (1.5 μM to 100 μM) and nitrite measured media concentrations expressed as a % change from their appropriate control.

TNF-α protein = TNF-α protein assay (ELISA) in LPS stimulated RAW 264.7 culture media; format: cell-based, mouse; settings: LPS stimulated RAW 264.7 cells; vs DMSO control
Procedure: TNF-α protein levels were measured by use of an ELISA specific for mouse TNF-α protein (BioLegend, San Diego, Calif.), O.D.s measured at 450 nm λ, obtained from the unknown samples were compared to a TNF-α protein standard curve (7.8 to 500 pg/ml) and the calculated TNF-α levels are expressed as a % change from their appropriate control or as pg/ml.

RAW 264.7 cells = test: Cellular toxicity, lactate dehydrogenase (LDH) assay; format: cell-based; settings: from 60 min after addition of LPS, vs DMSO control, FIG. 1

Row | Structure (SMILES) | mean maximal enhancement of IL-2 generation (IL-2; at 1 μM, mixed group of young and old subjects) | cell stress (changes in O.D. values of the MTS assay) [1] | concentration at and above which IL-17 generation is significantly inhibited (IL-17) | peak enhancement of IFN-γ generation (IFN-γ; at 3 μM) | levels of nitrite in cell culture media (nitrite) | concentration at which significant inhibition of IL-2 generation begins (IL-2) | levels of TNF-α protein in cell culture media (TNF-α protein) | cellular health (MTS assay), relative to 100% control ([1]; 20 μM, LPS stimulated RAW 264.7 cells, FIG. 3) | cellular stress (MTS assay) ([1]; 20 μM, LPS stimulated RAW 264.7 cells, vs DMSO control, FIG. 3) | cellular stress (O.D. values, LDH assay) (RAW 264.7 cells) | concentration at which significant inhibition of IFN-γ generation begins (IFN-γ) | effect on IL-2 generation (IL-2; at up to 100 μM) | inhibition of IFN-γ generation (IFN-γ; at 100 μM) | cellular stress (MTS assay) ([1]; concentrations that far exceed 20 μM, LPS stimulated RAW 264.7 cells, FIG. 3) | toxicity compared to dithiothalidomide ([1]; particularly at drug concentrations or 10 μm or greater)
1 | Nc1cccc2c1CN(C1CCC(=O)NC1=O)C2=O (stereo not drawn) [lenalidomide] | 9.5 fold | Neither thalidomide and lenalidomide treatment induced any cell stress | ≥ 0.3 µM | nearly three-fold | – | – | – | – | – | – | – | – | – | – | –
2 | O=C1NC(=S)CCC1N1C(=O)c2ccccc2C1=S (stereo not drawn) [dithiothalidomide, 3,6′-Dithiothalidomide] | – | – | ≥ 3 µM | – | reduced the levels of nitrite | ≥ 30 µM | reduced the levels of TNF-α protein | reduction from the 100% control values | evidence of cellular stress | evidence of cellular stress | ≥ 3 µM | – | – | – | –
3 | O=C1CCC(N2C(=O)c3ccccc3C2=O)C(=O)N1 (stereo not drawn) [thalidomide, N-α-phthalimidoglutarimide] | – | Neither thalidomide and lenalidomide treatment induced any cell stress | 100 µM | – | – | – | – | – | – | – | – | no detectable effect | only modest inhibition | – | –
4 | Nc1cccc2c1CN(C1CCC(=S)NC1=O)C2=S (stereo not drawn) [dithiolenalidomide, 1,6′-Dithiolenalidomide] | – | – | ≥ 0.1 µM | – | reduced the levels of nitrite | ≥ 3 µM | retained TNF-α inhibitory effect; also recorded: reduced the levels of TNF-α protein | – | – | no evidence of cellular stress | ≥ 1 µM | – | – | failed to induce any cellular stress | less toxic compared to dithiothalidomide
